System: termites
Experiment: Anti-termite effectiveness of chlorfenapyr incorporated in a concrete block (barrier test after NF X41-541)
Assay type: in vivo
Protocol: A block of concrete, 10 cm high, with passages for the termites, is poured, incorporating the treatment product in the mixing water.
After drying and an infiltration test, the test set-up and performance follow the standard NF X41-541. The barrier effect of the specimen is verified by evaluation of the mortality and penetration of the termites in the clean compartment containing blocks of wood. An evaluation of the blocks of wood following the scoring of EN NF 117 is performed at the end of the test.

CCOCn1c(-c2ccc(Cl)cc2)c(C#N)c(Br)c1C(F)(F)F [chlorfenapyr]
Barrier effect of treated concrete against termites (concrete treated with chlorfenapyr, overall conclusion): effectively prevents termites from attacking a building
Rate of survival % (series A: concentration studied 0.05 % (m/m), retention in the concrete: product 261 ppm, chlorfenapyr 56 ppm, 132 g/m^3): 0%
Rate of survival % (series B: concentration studied 0.1 % (m/m), retention in the concrete: product 521 ppm, chlorfenapyr 112 ppm, 265 g/m^3): 0%
Rate of survival % (series C: concentration studied 0.3 % (m/m), retention in the concrete: product 1567 ppm, chlorfenapyr 337 ppm, 795 g/m^3): 0%
Rate of survival % (series D: concentration studied 0.6 % (m/m), retention in the concrete: product 3132 ppm, chlorfenapyr 673 ppm, 1588 g/m^3): 0%

— patent US7931742B2, “Biocidal Structural Barrier (BSB)” (BASF SE, priority 2005, dated 2011)
